In ChEMBL document CHEMBL4130381, “Puromycin based inhibitors of aminopeptidases for the potential treatment of hematologic malignancies” (Eur J Med Chem, 2017):

How the values were obtained:
GFP protein synthesis [1] = experiment: Toxicity in human HeLa cells expressing pCFE-GFP assessed as inhibition of GFP proetin synthesis at 25 uM incubated for 30 mins measured for 2 hrs by spectrophotometric method relative to control; assay type: cell-based
MOLT-4 = experiment: cells; conditions: Homo sapiens, MOLT-4, 72 h
Description: Antiproliferative activity against human MOLT4 cells after 72 hrs by MTT assay

HL-60 = experiment: cells; conditions: Homo sapiens, HL-60, 72 h
Description: Antiproliferative activity against human HL60 cells after 72 hrs by MTT assay

[2] = Cytotoxicity against African green monkey Vero cells assessed as reduction in cell proliferation after 72 hrs by MTT assay; assay type: cell-based; conditions: chlorocebus sabaeus
[3] = target: Puromycin-sensitive aminopeptidase (Homo sapiens, UniProt P55786); experiment: Inhibition of recombinant human N-terminal His6-MBP-tagged PSA expressed in Escherichia coli BL21 STAR (DE3) using 4-Ala-MNA as substrate measured for 30 mins by thefluorescence assay
Chain of Puromycin-sensitive aminopeptidase (P55786 whole entry): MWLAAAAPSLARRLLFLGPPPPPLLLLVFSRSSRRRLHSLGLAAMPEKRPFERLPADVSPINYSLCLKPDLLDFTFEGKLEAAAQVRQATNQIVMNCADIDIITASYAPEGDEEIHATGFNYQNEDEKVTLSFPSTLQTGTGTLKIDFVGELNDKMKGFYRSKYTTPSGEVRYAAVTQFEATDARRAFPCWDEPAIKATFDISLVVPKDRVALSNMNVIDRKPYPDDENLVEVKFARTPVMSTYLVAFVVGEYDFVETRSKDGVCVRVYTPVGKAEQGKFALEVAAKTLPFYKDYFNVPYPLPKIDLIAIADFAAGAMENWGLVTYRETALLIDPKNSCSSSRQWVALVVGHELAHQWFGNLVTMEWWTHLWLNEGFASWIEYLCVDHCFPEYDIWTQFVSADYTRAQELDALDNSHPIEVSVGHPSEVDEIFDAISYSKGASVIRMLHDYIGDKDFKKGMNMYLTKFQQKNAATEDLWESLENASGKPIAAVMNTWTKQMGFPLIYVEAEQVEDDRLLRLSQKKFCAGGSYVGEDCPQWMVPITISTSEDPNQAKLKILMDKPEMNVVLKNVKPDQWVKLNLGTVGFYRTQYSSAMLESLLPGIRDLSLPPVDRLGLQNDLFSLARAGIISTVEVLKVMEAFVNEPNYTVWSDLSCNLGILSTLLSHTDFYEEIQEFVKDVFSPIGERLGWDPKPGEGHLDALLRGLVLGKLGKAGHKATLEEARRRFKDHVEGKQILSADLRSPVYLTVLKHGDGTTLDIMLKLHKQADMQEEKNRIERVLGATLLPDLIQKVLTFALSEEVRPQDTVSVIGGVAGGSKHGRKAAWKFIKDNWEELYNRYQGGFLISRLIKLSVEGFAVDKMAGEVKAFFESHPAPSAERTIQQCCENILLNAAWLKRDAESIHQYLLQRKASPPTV

Aminopeptidase N = Aminopeptidase N (Homo sapiens, UniProt P15144); experiment: Inhibition of recombinant human C-terminal His10-tagged APN (Lys69 to Lys967 residues) using Ala-AMC as substrate measured for 30 mins by fluorescence assay
Chain of Aminopeptidase N (P15144 whole entry): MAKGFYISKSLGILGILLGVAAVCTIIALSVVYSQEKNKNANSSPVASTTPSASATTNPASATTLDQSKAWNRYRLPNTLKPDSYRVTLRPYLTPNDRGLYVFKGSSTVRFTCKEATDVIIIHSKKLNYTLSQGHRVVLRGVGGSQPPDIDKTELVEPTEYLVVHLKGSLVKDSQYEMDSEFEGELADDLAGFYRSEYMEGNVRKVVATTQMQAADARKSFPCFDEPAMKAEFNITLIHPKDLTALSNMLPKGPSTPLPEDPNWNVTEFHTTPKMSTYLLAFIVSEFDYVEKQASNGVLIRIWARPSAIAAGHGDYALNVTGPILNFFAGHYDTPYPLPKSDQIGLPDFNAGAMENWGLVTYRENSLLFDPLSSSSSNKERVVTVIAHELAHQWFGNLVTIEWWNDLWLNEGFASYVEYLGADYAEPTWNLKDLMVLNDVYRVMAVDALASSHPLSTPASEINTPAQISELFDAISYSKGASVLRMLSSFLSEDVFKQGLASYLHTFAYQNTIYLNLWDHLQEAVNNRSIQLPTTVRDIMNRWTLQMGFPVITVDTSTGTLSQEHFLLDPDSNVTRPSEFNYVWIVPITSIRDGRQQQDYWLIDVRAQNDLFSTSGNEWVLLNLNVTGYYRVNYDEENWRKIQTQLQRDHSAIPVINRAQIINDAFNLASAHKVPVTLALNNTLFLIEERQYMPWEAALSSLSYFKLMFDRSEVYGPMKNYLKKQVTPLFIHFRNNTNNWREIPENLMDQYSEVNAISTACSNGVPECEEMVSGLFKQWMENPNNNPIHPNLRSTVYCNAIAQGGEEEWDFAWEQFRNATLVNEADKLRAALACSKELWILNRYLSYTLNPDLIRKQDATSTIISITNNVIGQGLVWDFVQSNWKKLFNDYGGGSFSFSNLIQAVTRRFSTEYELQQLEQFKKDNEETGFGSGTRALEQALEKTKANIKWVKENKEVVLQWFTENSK

GFP protein synthesis [4] = experiment: Toxicity in human HeLa cells expressing pCFE-GFP assessed as inhibition of GFP proetin synthesis at 10 uM incubated for 30 mins measured for 2 hrs by spectrophotometric method relative to control; assay type: cell-based

EC50 (MOLT-4)	EC50 (HL-60)	IC50 [3]	IC50 (Aminopeptidase N)	SMILES	inhibition at 30 min, 25 µM (GFP protein synthesis [1])	CC50 at 72 h [2]	inhibition at 30 min, 10 µM (GFP protein synthesis [4])
> 100 µM	> 100 µM	3.5 µM		CC(C)C[C@H](NC(=O)[C@@H](O)[C@H](N)Cc1ccccc1)C(=O)O [UBENIMEX]	28%	25 to 100 µM	
0.17 µM	0.055 µM	9.7 µM	41 µM	COc1ccc(C[C@H](N)C(=O)N[C@H]2[C@@H](O)[C@H](n3cnc4c(N(C)C)ncnc43)O[C@@H]2CO)cc1 [PUROMYCIN]	99%	2.8 µM	
14 µM	10 µM			CN(C)c1ncnc2c1ncn2[C@@H]1O[C@H](CO)[C@@H](NC(=O)[C@H](N)CSC(c2ccccc2)(c2ccccc2)c2ccccc2)[C@H]1O	0%	15 µM	
2.1 µM	4.7 µM	0.26 µM	0.68 µM	CC(C)C[C@@H](C(=O)N[C@H](C(=O)OC1CCCC1)c1ccccc1)[C@H](O)C(=O)NO [TOSEDOSTAT]	35%	13 µM	
31 µM	> 100 µM			CN(C)c1ncnc2c1ncn2[C@@H]1O[C@H](CO)[C@@H](NC(=O)[C@@H](N)CSC(c2ccccc2)(c2ccccc2)c2ccccc2)[C@H]1O	0%	> 100 µM	
0.39 µM	0.41 µM			CN(C)c1ncnc2c1ncn2[C@@H]1O[C@H](CO)[C@@H](NC(=O)[C@@H](N)Cc2ccccc2)[C@H]1O	59%	3.2 µM	

The next lines start with the compound.

SMILES	EC50 (MOLT-4)	EC50 (HL-60)	IC50 [3]	IC50 (Aminopeptidase N)	inhibition at 30 min, 25 µM (GFP protein synthesis [1])	CC50 at 72 h [2]	inhibition at 30 min, 10 µM (GFP protein synthesis [4])
CN(C)c1ncnc2c1ncn2[C@@H]1O[C@H](CO)[C@@H](NC(=O)[C@@H](N)CSC(c2ccccc2)c2ccccc2)[C@H]1O	1.3 µM	32 µM			0%	> 100 µM	
N[C@@H](CSC(c1ccccc1)c1ccccc1)C(=O)NCCCO	> 100 µM	> 100 µM			0%	> 100 µM	
CN(C)c1ncnc2c1ncn2[C@@H]1O[C@H](CO)[C@@H](NC(=O)[C@H](N)CSCc2ccccc2)[C@H]1O	14 µM	46 µM			0%	17 µM	
CN(C)c1ncnc2c1ncn2[C@@H]1O[C@H](CO)[C@@H](NC(=O)[C@H](N)CSC(c2ccccc2)c2ccccc2)[C@H]1O	11 µM	34 µM			0%	46 µM	
CN(C)c1ncnc2c1ncn2[C@@H]1O[C@H](CO)[C@@H](NC(=O)[C@@H](N)CSCc2ccccc2)[C@H]1O	0.18 µM	0.19 µM			30%	0.88 µM	30%
